Here are results for 13 compounds from patent US20260028338A1, “HETEROBIFUNCTIONAL COMPOUNDS AND METHODS OF TREATING DISEASE” (Halda Therapeutics OpCo, Inc., priority 2023, published 2026).

Each structure is given as a SMILES string. Some results are limits rather than exact numbers.

The target of assay [1] is T1, His-tagged BRD4 BD1 (46-168) (Homo sapiens, UniProt O60885).
T1 construct: His-tagged BRD4 BD1 (46-168) and biotinylated histone H4K5/8/12/16(Ac) peptide
In words: AlphaLISA competition assay, BRD4 BD1. The settings on record: BRD4-BD1, AlphaLISA competition with biotinylated histone H4K5/8/12/16(Ac) peptide, 10 nM. Type of assay: binding. As for the experimental part: (§1) Exemplary compounds were tested for ability to bind to bromodomain-containing protein 4 (BRD4).
(§2) Compounds were tested using a developed AlphaLISA competition assay. Briefly, His-tagged BRD4 BD1 (46-168) and biotinylated histone H4K5/8/12/16(Ac) peptide (ANASPEC, AS-64989-1) were incubated in 20 mM HEPES pH 7.5, 100 mM NaCl, 0.5 mM TCEP, 0.1% BSA, 0.02% CHAPS at a final concentration of 10 nM. Test compounds were serially diluted ten times in the same buffer and were added to the BRD4-peptide mixture for 1 h incubation at room temperature. Following incubation, Streptavidin AlphaLISA acceptor beads (PerkinElmer, AL125M) were added to BRD4-peptide-compound samples to a final concentration of 0.01 mg/mL for a 0.5 h incubation at room temperature in the dark. Following incubation, the same amount of Nickel Chelate Alpha donor beads (PerkinElmer, AS101M) were added to the samples for a final 1 h incubation. The AlphaLISA signals were measured using an EnVision plate reader (PerkinElmer). The data were uploaded to Screening Ultra (Dotmatics) to determine the half-maximal inhibitory concentration (IC50) for each test compound.
In general terms: Alpha assays give light when donor and acceptor beads are brought close together.

Assay [2] deals with T2, His-tagged BRD4 BD2 (333-460) (Homo sapiens, UniProt O60885).
T2 construct: The same assay was developed for His-tagged BRD4 BD2 (333-460) and biotinylated histone H4K5/8/12/16(Ac) peptide
In words: AlphaLISA competition assay, BRD4 BD2. The settings on record: BRD4-BD2, AlphaLISA competition with biotinylated histone H4K5/8/12/16(Ac) peptide, 20 nM. Type of assay: binding. As for the experimental part:
as §1, §2
The same assay was developed for His-tagged BRD4 BD2 (333-460) and biotinylated histone H4K5/8/12/16(Ac) peptide at a final concentration of 20 nM.

Assay [3] deals with T-Rex 293 cell line SC cells having increased expression of BCL6 protein. Description: Cellular growth inhibition assay, T-Rex 293 SC cells with doxycycline (CellTiter-Glo). The format is cell-based. The settings on record: T-Rex 293 SC cells with 10 ng/mL doxycycline (increased BCL6 expression), 72 hours, CellTiter-Glo 2.0. As for the experimental part: (§3) Exemplary compounds were tested for ability to inhibit the proliferation of the following types of cells: (i) a T-Rex 293 cell line having increased expression of BCL6 protein due to exposure of doxycycline and (ii) a T-Rex 293 cell line lacking increased expression of BCL6 protein.
(§4) The following types of cells were prepared for this experiment: (i) a T-Rex 293 cell line having increased expression of BCL6 protein due to exposure to doxycycline and (ii) a T-Rex 293 cell line lacking increased expression of BCL6 protein. Ability of the test compounds to inhibit proliferation of the foregoing cell types was evaluated according to the procedures set forth below.
(§5) The doxycycline-inducible BCL6 protein expressing cell line was established using the following protocol: T-Rex 293 cells were purchased from Invitrogen (Cat #R71007) and transfected using Lipofectamine 2000 with the wild-type BCL6 protein sequence cloned into the pcDNA4/TO vector. Transfected cells were selected using 400 μg/mL Zeocin (Invitrogen Cat #R25001). Following selection, single clones were raised and maintained in Dulbecco's Modified Eagle Medium (DMEM) supplemented with 10% w/w Tetracycline-free fetal bovine serum (FBS) and 250 μg/mL Zeocin. Clones were analyzed for expression of BCL6 protein in the presence and absence of 10 ng/mL doxycycline (Sigma Cat #D9891), and a single doxycycline-inducible clone (hereinafter “SC”) was selected for use in downstream assays.
(§6) The SC cells were seeded on poly-D-lysine coated, black clear-bottom 384-well plates at 2500/well, in 25 μL Dulbecco's Modified Eagle Medium (DMEM) supplemented with 10% w/w Tetracycline-free fetal bovine serum (FBS) and 1% w/w pen-strep, with or without 10 ng/mL doxycycline. Pen-Strep is a commercially available mixture of penicillin G and streptomycin, which is used in mammalian cell culture media to prevent bacterial contamination. Dulbecco's Modified Eagle Medium (DMEM) supplemented with 10% w/w Tetracycline-free fetal bovine serum (FBS) and 1% w/w pen-strep, with or without 10 ng/mL doxycycline is herein referred to as Treatment Medium. Following seeding of cells in the plates, the plates were spun at 300×g for 30 seconds, then equilibrated to room temperature for 30 minutes, and then deposited in a humidified tissue culture incubator maintained at 37° C. with 5% CO2.
(§7) At 24 hours after seeding of the cells, dilutions of test compound were prepared in DMSO and dissolved in Treatment Medium, to achieve a final DMSO concentration of 0.5% w/w, thereby providing the Test Compound Solution. A 25 μL aliquot of the Test Compound Solution was added to cells in the well plates. An equal volume of a solution containing DMSO and Treatment Medium was used as a negative control. Following treatment of cells with Test Compound Solution or said equal volume of a solution containing DMSO and Treatment Medium, the plates were spun at 300×g for 30 seconds, and then left in an incubator for 72 hours.
(§8) At the end of the treatment duration, cell viability was quantified with CellTiter-Glo 2.0 reagent (Promega Cat #G9243). For this purpose, plates were equilibrated to room temperature for 30 minutes, and then 25 μL of CellTiter-Glo 2.0 reagent was added to cells in the plate wells. Plates were then agitated on a shaker for two minutes at 500 rpm and subsequently incubated at room temperature for 10 minutes. Following incubation, the plates were spun at 3000×g for 30 seconds, then sealed with an optical adhesive cover, and luminescence readings were measured with an EnVision Plate Reader (Perkin Elmer).
(§9) Data was normalized using zero luminescence for baseline. A four-parameter non-linear regression curve fit was applied to dose-response data in GraphPad Prism data analysis software to determine the half-maximal growth inhibitory concentration (GI50) for each test compound.

The subject of assay [4] is T-Rex 293 cell line SC cells lacking increased expression of BCL6 protein. Description: Cellular growth inhibition assay, T-Rex 293 SC cells without doxycycline (CellTiter-Glo). The format is cell-based. The settings on record: T-Rex 293 SC cells not exposed to doxycycline (no increased BCL6 expression), 72 hours, CellTiter-Glo 2.0. As for the experimental part: as §3, §4, §5, §6, §7, §8, §9
In general terms: In ATP-based viability assays light output follows the ATP content of the culture.

Assay [5] concerns Farage cell line. In words: Cellular growth inhibition assay, Farage cells (CellTiter-Glo). The format is cell-based. The settings on record: Farage cell line (DLBCL), 72 hours, CellTiter-Glo 2.0. As for the experimental part:
Exemplary compounds were tested for ability to inhibit the proliferation of Su-DHL-4 and Farage cells. Su-DHL-4 and Farage cells are commercially available diffuse large B cell lymphoma cell lines (DLBCL).
Su-DHL-4 and Farage cells were purchased from American Type Cell Culture (ATCC Cat #CRL-2957/CRL-2630) and then seeded on poly-D-lysine coated, black clear-bottom 384-well plates at 3000/well in 25 μL Roswell Park Memorial Institute media (RPMI-1640) supplemented with 10% w/w Fetal bovine serum (FBS) and 1% w/w Pen-Strep. Pen-Strep is a commercially available mixture of penicillin G and streptomycin, which is used in mammalian cell culture media to prevent bacterial contamination. Roswell Park Memorial Institute media (RPMI-1640) supplemented with 10% w/w fetal bovine serum (FBS), and 1% w/w Pen-Strep is herein referred to as Treatment Medium. Following seeding of cells in the plates, the plates were spun at 300×g for 30 seconds, then equilibrated to room temperature for 30 minutes, and then deposited in a humidified tissue culture incubator maintained at 37° C. with 5% CO2.
as §7, §8, §9

In general, IC50 refers to the concentration that gives 50% inhibition. A higher IC50 goes with weaker potency in that assay. As a reminder, the GI50 is the concentration at which growth is held to half of that of the control. Low readings indicate greater sensitivity of the cells, high ones lower sensitivity of the cells. In the case of `CCS(=O)(=O)Nc1ccc(Oc2ccc(OCCCCN3CCN(CC4CCN(c5ncc(Cl)c(Nc6ccc7c(c6)cc(OCC(=O)NC)c(=O)n7C)n5)CC4)CC3)cc2)c(-c2cn(C)c(=O)c3[nH]ccc23)c1` [Compound I-10], the IC50 is 5 to 50 nM in assay [1] and < 5 nM in assay [2]. For the same compound, the GI50 in assay [3] and in assay [4] was < 500 nM in each case.

For `CCS(=O)(=O)Nc1ccc(Oc2ccc(CCN3CCN(CC4CCN(c5ncc(Cl)c(Nc6ccc7c(c6)cc(OCC(=O)NC)c(=O)n7C)n5)CC4)CC3)cc2)c(-c2cn(C)c(=O)c3[nH]ccc23)c1` [Compound I-16, 2-[[6-[[5-chloro-2-[4-[[4-[2-[4-[4-(ethylsulfonylamino)-2-(6-methyl-7-oxo-1H-pyrrolo[2,3-c]pyridin-4-yl)phenoxy]phenyl]ethyl]piperazin-1-yl]methyl]-1-piperidyl]pyrimidin-4-yl]amino]-1-methyl-2-oxo-3-quinolyl]oxy]-N-methyl-acetamide], the IC50 in assay [1] was 5 to 50 nM; in assay [2], < 5 nM. Besides, the concentration for 50% growth inhibition (GI50) in assay [3] and in assay [4] was < 500 nM in each case.

With `CCS(=O)(=O)Nc1ccc(Oc2ccc(OCCN3CCN(CCCC4CCN(c5ncc(Cl)c(Nc6ccc7c(c6)cc(OCC(=O)NC)c(=O)n7C)n5)CC4)CC3)cc2)c(-c2cn(C)c(=O)c3[nH]ccc23)c1` [Compound I-12], the IC50 in assay [1] and in assay [2] was 5 to 50 nM throughout. Moreover, the GI50 in assay [3] and in assay [4] was < 500 nM in each case.

`CCS(=O)(=O)Nc1ccc(Oc2cccc(OCCCN3CCN(CC4CCN(c5ncc(Cl)c(Nc6ccc7c(c6)cc(OCC(=O)NC)c(=O)n7C)n5)CC4)CC3)c2)c(-c2cn(C)c(=O)c3[nH]ccc23)c1` [Compound I-6]: the IC50 in assay [1] and in assay [2] was 5 to 50 nM in each case. For the same compound, the 50% growth inhibitory concentration (GI50) in assay [3] and in assay [4] was < 500 nM each time.

Take `CNC(=O)COc1cc2cc(Nc3nc(N4CCC(CN5CCC6(CC5)CC(CC5CC(Oc7ccc(C(C)(C)O)cc7-c7cn(C)c(=O)c8[nH]ccc78)C5)C6)CC4)ncc3Cl)ccc2n(C)c1=O` (stereo not shown) [Compound I-53]: the GI50 in assay [3], in assay [4] and in assay [5] was < 500 nM in each case.

As for `CCS(=O)(=O)Nc1ccc(Oc2cccc(CCN3CCN(CC4CCN(c5ncc(Cl)c(Nc6ccc7c(c6)cc(OCC(=O)NC)c(=O)n7C)n5)CC4)CC3)c2)c(-c2cn(C)c(=O)c3[nH]ccc23)c1` [Compound I-17], the half-inhibitory concentration (IC50) in assay [1] and in assay [2] was 5 to 50 nM each time. The GI50 in assay [3] is > 3000 nM; in assay [4], < 500 nM.

As to `CCS(=O)(=O)Nc1ccc(Oc2cccc(OCCN3CCN(CCC4CCN(c5ncc(Cl)c(Nc6ccc7c(c6)cc(OCC(=O)NC)c(=O)n7C)n5)CC4)CC3)c2)c(-c2cn(C)c(=O)c3[nH]ccc23)c1` [Compound I-13], the IC50 in assay [1] and in assay [2] was 5 to 50 nM throughout. In addition, the concentration for 50% growth inhibition (GI50) in assay [3] and in assay [4] was < 500 nM throughout.

For `CCS(=O)(=O)Nc1ccc(Oc2ccc(OCCN3CCN(CC4CCN(c5ncc(Cl)c(Nc6ccc7c(c6)cc(OCC(=O)NC)c(=O)n7C)n5)CC4)CC3)cc2)c(-c2cn(C)c(=O)c3[nH]ccc23)c1` [Compound I-7], the IC50 in assay [1] and in assay [2] was 5 to 50 nM each time. The GI50 in assay [3] and in assay [4] was < 500 nM in each case.

Regarding `CNC(=O)COc1cc2cc(Nc3nc(N4CCC(CN5CCC6(CC5)CC(CC5CC(Oc7ccc(C(C)(C)O)cc7-c7cn(C)c(=O)c8[nH]ccc78)C5)C6)CC4)ncc3Cl)ccc2n(C)c1=O` (stereo not shown) [Compound I-54], the concentration for 50% growth inhibition (GI50) in assay [3] and in assay [5] was < 500 nM throughout.

`CCS(=O)(=O)Nc1ccc(Oc2cccc(OCCCCN3CCN(CC4CCN(c5ncc(Cl)c(Nc6ccc7c(c6)cc(OCC(=O)NC)c(=O)n7C)n5)CC4)CC3)c2)c(-c2cn(C)c(=O)c3[nH]ccc23)c1` [Compound I-9]: the half-inhibitory concentration (IC50) in assay [1] and in assay [2] was 5 to 50 nM each time. Further, the concentration for 50% growth inhibition (GI50) in assay [3] and in assay [4] was < 500 nM in each case.

Turning to `CCS(=O)(=O)Nc1ccc(Oc2ccc(OCCCN3CCN(CC4CCN(c5ncc(Cl)c(Nc6ccc7c(c6)cc(OCC(=O)NC)c(=O)n7C)n5)CC4)CC3)cc2)c(-c2cn(C)c(=O)c3[nH]ccc23)c1` [Compound I-8], the concentration for half-maximal inhibition (IC50) in assay [1] and in assay [2] was 5 to 50 nM throughout. Moreover, the GI50 in assay [3] and in assay [4] was < 500 nM in each case.

On to `CCS(=O)(=O)Nc1ccc(Oc2cccc(OCCN3CCN(CCCC4CCN(c5ncc(Cl)c(Nc6ccc7c(c6)cc(OCC(=O)NC)c(=O)n7C)n5)CC4)CC3)c2)c(-c2cn(C)c(=O)c3[nH]ccc23)c1` [Compound I-11], for which the IC50 in assay [1] and in assay [2] was 5 to 50 nM each time. For the same compound, the GI50 in assay [3] and in assay [4] was < 500 nM in each case.

For the compound `CCS(=O)(=O)Nc1ccc(Oc2ccc(OCCN3CCN(CCC4CCN(c5ncc(Cl)c(Nc6ccc7c(c6)cc(OCC(=O)NC)c(=O)n7C)n5)CC4)CC3)cc2)c(-c2cn(C)c(=O)c3[nH]ccc23)c1` [Compound I-14], the values for the IC50 in assay [1] and in assay [2] were 5 to 50 nM and < 5 nM, respectively. Besides, the GI50 is < 500 nM in assay [3] and 500 to 1500 nM in assay [4].
